# Laboratory results: patent US8604016B2, “Heterocyclic inhibitors of glutaminase” (Calithera Biosciences Inc., priority 2011, dated 2013)
# Target: recombinant form of Glutaminase 1 (GAC) (Homo sapiens, UniProt O94925)
# Assay: Recombinant Enzyme Assay (GAC coupled to GDH, NADH absorbance, no preincubation)
# Type: biochemical
# Details: no preincubation; read-out: GAC Delta N2 IC50 no preinc
# Description: Enzymatic reaction was started with the addition of 50 μL of enzyme solution (50 mM Tris-HCl pH 8.0, 0.2 mM EDTA, 150 mM K2HPO4, 0.1 mg/ml BSA, 1 mM DTT, 10 ppm antifoam, 4 units/ml GDH, 4 mM adenosine diphosphate, and 4 nM GAC) and read in a Molecular Devices M5 plate reader at 20° C. The plate reader was configured to read absorbance (λ=340 nm) in kinetic mode for 15 minutes. Data was recorded as milli-absorbance units per minute and slopes were compared to a control compound and a DMSO-only control on the same plate. Compounds with slopes less than the DMSO control were considered inhibitors and plate variability was assessed using the control compound.
row,IC50 [µM],Compound
1,10,O=C(Nc1nnc(CCSCCc2nnc(NC(=O)[C@H](O)c3ccccc3)s2)s1)[C@H](O)c1ccccc1 [Compound 81]
2,0.8,O=C(Cc1ccco1)Nc1nnc(CCSCCc2nnc(NC(=O)Cc3ccco3)s2)s1 [Compound 82]
3,3.9,O=C(CC1CC1)Nc1nnc(CCSCCc2nnc(NC(=O)CC3CC3)s2)s1 [Compound 83]
4,0.23,O=C(Cc1ccsc1)Nc1nnc(CCSCCc2nnc(NC(=O)Cc3ccsc3)s2)s1 [Compound 84]
5,1.5,O=C(CC1CC1)Nc1nnc(CCCCc2nnc(NC(=O)CC3CC3)s2)s1 [Compound 85]
6,0.32,O=C(Cc1ccco1)Nc1nnc(CCCCc2nnc(NC(=O)Cc3ccco3)s2)s1 [Compound 86]
7,0.18,O=C(Cc1cccs1)Nc1nnc(CCCCc2nnc(NC(=O)Cc3cccs3)s2)s1 [Compound 87]
8,0.2,O=C(Cc1ccsc1)Nc1nnc(CCCCc2nnc(NC(=O)Cc3ccsc3)s2)s1 [Compound 88]
9,> 20,CN(C)C(Cc1ccccc1)C(=O)Nc1nnc(CCCCc2nnc(NC(=O)C(Cc3ccccc3)N(C)C)s2)s1 (stereo not drawn) [Compound 89]
10,> 20,O=C(Nc1nnc(CCCCc2nnc(NC(=O)[C@@H]3CC3c3ccccc3)s2)s1)C1CC1c1ccccc1 (stereo partly drawn) [Compound 90]
11,> 20,O=C(Nc1nnc(CCSCCc2nnc(NC(=O)C3C[C@@H]3c3ccccc3)s2)s1)C1C[C@@H]1c1ccccc1 (stereo partly drawn) [Compound 91]
12,0.9,O=C(Nc1nnc(CCSCCc2nnc(NC(=O)[C@@H](O)c3ccccc3)s2)s1)[C@@H](O)c1ccccc1 [Compound 93]
13,0.28,O=C(Nc1nnc(CCCCc2nnc(NC(=O)C3CC(O)c4ccccc43)s2)s1)C1CC(O)c2ccccc21 (stereo not drawn) [Compound 94]
14,2.9,O=C(Nc1nnc(CCSCCc2nnc(NC(=O)C3CCOC3)s2)s1)C1CCOC1 (stereo not drawn) [Compound 95]
15,> 20,CC(=O)OC(C)(C)C(=O)Nc1nnc(CCCCc2nnc(NC(=O)C(C)(C)OC(C)=O)s2)s1 [Compound 96]
16,0.56,Cc1cc(C)n(CC(=O)Nc2nnc(CCSCCc3nnc(NC(=O)Cn4nc(C)cc4C)s3)s2)n1 [Compound 97]
17,> 20,CC(C)(C)OC(=O)Nc1cccc(CC(=O)Nc2nnc(CCSCCc3nnc(NC(=O)Cc4cccc(NC(=O)OC(C)(C)C)c4)s3)s2)c1 [Compound 98]
18,8.1,COCCC(=O)Nc1nnc(CCCCc2nnc(NC(=O)CCOC)s2)s1 [Compound 100]
19,24,COCCC(=O)Nc1nnc(CCSCCc2nnc(NC(=O)CCOC)s2)s1 [Compound 101]
20,0.24,O=C(Cc1cccc(F)c1)Nc1nnc(CCSCCc2nnc(NC(=O)Cc3cccc(F)c3)s2)s1 [Compound 102]
21,19,CC1(C)OC(=O)[C@@H](CC(=O)Nc2nnc(CCCCc3nnc(NC(=O)C[C@H]4OC(C)(C)OC4=O)s3)s2)O1 [Compound 103]
22,> 20,CC1(C)OC(=O)[C@@H](CC(=O)Nc2nnc(CCSCCc3nnc(NC(=O)C[C@H]4OC(C)(C)OC4=O)s3)s2)O1 [Compound 104]

row,IC50 [µM],Compound
1,9.9,CCC(C)C(=O)Nc1nnc(CCSCCc2nnc(NC(=O)C(C)CC)s2)s1 (stereo not drawn) [Compound 105]
2,> 20,O=C(CCc1ccccc1)Nc1nnc(CCCCc2nnc(NC(=O)CCc3ccccc3)s2)s1 [Compound 106]
3,4.3,CCC(C)C(=O)Nc1nnc(CCCCc2nnc(NC(=O)C(C)CC)s2)s1 (stereo not drawn) [Compound 107]
4,> 20,O=C(Nc1nnc(CCSCCc2nnc(NC(=O)C3CCOCC3)s2)s1)C1CCOCC1 [Compound 108]
5,> 20,CC(O)(C(=O)Nc1nnc(CCSCCc2nnc(NC(=O)C(C)(O)C(F)(F)F)s2)s1)C(F)(F)F (stereo not drawn) [Compound 109]
6,> 20,CC(C)(C)OC(=O)NC(C(=O)Nc1nnc(CCSCCc2nnc(NC(=O)C(NC(=O)OC(C)(C)C)C3CCCC3)s2)s1)C1CCCC1 (stereo not drawn) [Compound 110]
7,0.95,CC(C)(C)OC(=O)N1CCC(CC(=O)Nc2nnc(CCSCCc3nnc(NC(=O)CC4CCN(C(=O)OC(C)(C)C)CC4)s3)s2)CC1 [Compound 111]
8,0.51,CC(C)(C)OC(=O)N1CCCC(CC(=O)Nc2nnc(CCSCCc3nnc(NC(=O)CC4CCCN(C(=O)OC(C)(C)C)C4)s3)s2)C1 (stereo not drawn) [Compound 112]
9,> 20,CC(C)(C)OC(=O)NC(C(=O)Nc1nnc(CCCCc2nnc(NC(=O)C(NC(=O)OC(C)(C)C)C3CCCC3)s2)s1)C1CCCC1 (stereo not drawn) [Compound 113]
10,0.6,CC(C)(C)OC(=O)N1CCC(CC(=O)Nc2nnc(CCCCc3nnc(NC(=O)CC4CCN(C(=O)OC(C)(C)C)CC4)s3)s2)CC1 [Compound 114]
11,0.62,CC(C)(C)OC(=O)N1CCCC(CC(=O)Nc2nnc(CCCCc3nnc(NC(=O)CC4CCCN(C(=O)OC(C)(C)C)C4)s3)s2)C1 (stereo not drawn) [Compound 115]
12,0.24,O=C(Cc1cccs1)Nc1nnc(CCSCCc2nnc(NC(=O)Cc3cccs3)s2)s1 [Compound 116]
13,2.4,COc1ccc2c(c1)CC(C(=O)Nc1nnc(CCSCCc3nnc(NC(=O)C4Cc5cc(OC)ccc5O4)s3)s1)O2 (stereo not drawn) [Compound 117]
14,5,O=C(Nc1nnc(CCSCCc2nnc(NC(=O)C3Cc4cc(Br)ccc4O3)s2)s1)C1Cc2cc(Br)ccc2O1 (stereo not drawn) [Compound 118]
15,> 20,CC1(C(=O)Nc2nnc(CCSCCc3nnc(NC(=O)C4(C)CCCO4)s3)s2)CCCO1 (stereo not drawn) [Compound 119]
16,1.8,O=C(Nc1nnc(CCCCc2nnc(NC(=O)C3Cc4cc(Cl)ccc4O3)s2)s1)C1Cc2cc(Cl)ccc2O1 (stereo not drawn) [Compound 120]
17,1.7,COc1ccc2c(c1)CC(C(=O)Nc1nnc(CCCCc3nnc(NC(=O)C4Cc5cc(OC)ccc5O4)s3)s1)O2 (stereo not drawn) [Compound 121]
18,3.5,O=C(Nc1nnc(CCCCc2nnc(NC(=O)C3Cc4cc(Br)ccc4O3)s2)s1)C1Cc2cc(Br)ccc2O1 (stereo not drawn) [Compound 122]
19,12,CC1(C(=O)Nc2nnc(CCCCc3nnc(NC(=O)C4(C)CCCO4)s3)s2)CCCO1 (stereo not drawn) [Compound 123]
20,> 20,O=C(CC1CCCNC1)Nc1nnc(CCSCCc2nnc(NC(=O)CC3CCCNC3)s2)s1 (stereo not drawn) [Compound 124]
21,> 20,NC(C(=O)Nc1nnc(CCSCCc2nnc(NC(=O)C(N)C3CCCC3)s2)s1)C1CCCC1 (stereo not drawn) [Compound 125]
22,1.8,O=C(C[C@@H](O)c1ccccc1)Nc1nnc(CCCCc2nnc(NC(=O)C[C@@H](O)c3ccccc3)s2)s1 [Compound 127]

row,IC50 [µM],Compound
1,32,CC(=O)N[C@@H](C(=O)Nc1nnc(CCSCCc2nnc(NC(=O)[C@H](NC(C)=O)c3ccccc3)s2)s1)c1ccccc1 [Compound 128]
2,> 20,O=C(CC1CCNCC1)Nc1nnc(CCSCCc2nnc(NC(=O)CC3CCNCC3)s2)s1 [Compound 129]
3,> 20,O=C(CC1CCCNC1)Nc1nnc(CCCCc2nnc(NC(=O)CC3CCCNC3)s2)s1 (stereo not drawn) [Compound 130]
4,19,NC(C(=O)Nc1nnc(CCCCc2nnc(NC(=O)C(N)C3CCCC3)s2)s1)C1CCCC1 (stereo not drawn) [Compound 131]
5,> 20,O=C(CC1CCNCC1)Nc1nnc(CCCCc2nnc(NC(=O)CC3CCNCC3)s2)s1 [Compound 132]
6,14,O=C(Nc1nnc(CCSCCc2nnc(NC(=O)C3Oc4ccccc4O3)s2)s1)C1Oc2ccccc2O1 [Compound 134]
7,7,O=C(Nc1nnc(CCCCc2nnc(NC(=O)C3Oc4ccccc4O3)s2)s1)C1Oc2ccccc2O1 [Compound 136]
8,> 20,N[C@@H](CO)C(=O)Nc1nnc(CCSCCc2nnc(NC(=O)[C@@H](N)CO)s2)s1 [Compound 137]
9,> 20,C[C@@H](O)[C@H](N)C(=O)Nc1nnc(CCSCCc2nnc(NC(=O)[C@@H](N)[C@@H](C)O)s2)s1 [Compound 139]
10,3.4,N[C@@H](CO)C(=O)Nc1nnc(CCCCc2nnc(NC(=O)[C@@H](N)CO)s2)s1 [Compound 140]
11,1.7,CC[C@](O)(C(=O)Nc1nnc(CCSCCc2nnc(NC(=O)[C@@](O)(CC)c3ccccc3)s2)s1)c1ccccc1 [Compound 141]
12,> 20,CC[C@@](O)(C(=O)Nc1nnc(CCSCCc2nnc(NC(=O)[C@](O)(CC)c3ccccc3)s2)s1)c1ccccc1 [Compound 142]
13,0.57,CC[C@](O)(C(=O)Nc1nnc(CCCCc2nnc(NC(=O)[C@@](O)(CC)c3ccccc3)s2)s1)c1ccccc1 [Compound 143]
14,> 20,O=C(Cc1ccccc1)Nc1nnc(CSCc2nnc(NC(=O)Cc3ccccc3)s2)s1 [Compound 145]
15,0.43,O=C(Nc1nnc(CCCCc2nnc(NC(=O)[C@@H](O)Cc3ccccc3)s2)s1)[C@@H](O)Cc1ccccc1 [Compound 146]
16,0.62,CO[C@@H](C(=O)Nc1nnc(CCCCc2nnc(NC(=O)[C@H](OC)c3ccccc3)s2)s1)c1ccccc1 [Compound 147]
17,0.59,CO[C@H](C(=O)Nc1nnc(CCCCc2nnc(NC(=O)[C@@H](OC)c3ccccc3)s2)s1)c1ccccc1 [Compound 148]
18,15,"O=C(Cc1ccccc1)Nc1nnc(CCNCCc2nnc(NC(=O)Cc3ccccc3)s2)s1 [Compound 149, N,N′-(5,5′-(azanediyl-bis(ethane-2,1-diyl))-bis(1,3,4-thiadiazole-5,2-diyl))-bis(2-phenylacetamide) trifluoroacetic acid]"
19,> 20,CCN(C(=O)Cc1ccccc1)c1nnc(CCSCCc2nnc(N(CC)C(=O)Cc3ccccc3)s2)s1 [Compound 150]
20,14,CC(CO)(CO)C(=O)Nc1nnc(CCCCc2nnc(NC(=O)C(C)(CO)CO)s2)s1 [Compound 151]
21,0.73,"CC(CO)(CO)C(=O)Nc1nnc(CCCCc2nnc(NC(=O)Cc3cccc(F)c3)s2)s1 [Compound 152, N,N′-(5-(4-(5-(2-(3-fluorophenyl)acetamido)-1,3,4-thiadiazol-2-yl)butyl)-1,3,4-thiadiazol-2-yl)-3-hydroxy-2-(hydroxymethyl)-2-methylpropanamide]"
22,19,O=C(C[C@@H](O)C(=O)O)Nc1nnc(CCCCc2nnc(NC(=O)C[C@@H](O)C(=O)O)s2)s1 [Compound 154]
